Source: patent US9133158B2, “Bicyclic dihydroisoquinoline-1-one derivatives” (Hoffmann-La Roche Inc., priority 2011, dated 2015)

Columns and labels:
[1] = molecular target: T1, human CYP11B2 (Homo sapiens, UniProt P19099); assay: G-402 cellular enzyme assay, human CYP11B2 (aldosterone release, HTRF); format: cell-based; settings: G-402 cells, 1 μM Deoxycorticosterone
T1 construct: expressed in transfected cells
T1 sequence (P19099 25-503): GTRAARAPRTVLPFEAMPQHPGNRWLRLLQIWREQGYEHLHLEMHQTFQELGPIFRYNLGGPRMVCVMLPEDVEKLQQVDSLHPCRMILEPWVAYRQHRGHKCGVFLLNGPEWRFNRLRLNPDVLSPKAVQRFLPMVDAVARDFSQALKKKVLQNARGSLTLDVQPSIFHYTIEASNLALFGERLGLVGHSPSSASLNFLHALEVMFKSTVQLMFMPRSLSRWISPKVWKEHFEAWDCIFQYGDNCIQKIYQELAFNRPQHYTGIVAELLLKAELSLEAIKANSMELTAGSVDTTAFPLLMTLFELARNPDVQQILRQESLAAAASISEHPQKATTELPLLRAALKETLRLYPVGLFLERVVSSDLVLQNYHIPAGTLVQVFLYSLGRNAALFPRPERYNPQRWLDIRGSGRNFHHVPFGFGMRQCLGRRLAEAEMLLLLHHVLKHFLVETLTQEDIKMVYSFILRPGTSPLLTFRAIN
Method in brief: (§1)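 Stable G-402 transfectants; 16 h incubation with inhibitor plus substrate — CYP11B2: 1 μM deoxycorticosterone, aldosterone read; CYP11B1: 1 μM deoxycortisol, cortisol read. HTRF on supernatant. Medium DMEM/F12, 2.5% charcoal FCS. EC50 via MMF sigmoidal fit.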

[2] = molecular target: T2, human CYP11B1 (Homo sapiens, UniProt P15538); assay: G-402 cellular enzyme assay, human CYP11B1 (cortisol release, HTRF); format: cell-based; settings: G-402 cells, 1 μM Deoxycortisol
T2 construct: expressed in transfected cells
T2 sequence (P15538 25-503): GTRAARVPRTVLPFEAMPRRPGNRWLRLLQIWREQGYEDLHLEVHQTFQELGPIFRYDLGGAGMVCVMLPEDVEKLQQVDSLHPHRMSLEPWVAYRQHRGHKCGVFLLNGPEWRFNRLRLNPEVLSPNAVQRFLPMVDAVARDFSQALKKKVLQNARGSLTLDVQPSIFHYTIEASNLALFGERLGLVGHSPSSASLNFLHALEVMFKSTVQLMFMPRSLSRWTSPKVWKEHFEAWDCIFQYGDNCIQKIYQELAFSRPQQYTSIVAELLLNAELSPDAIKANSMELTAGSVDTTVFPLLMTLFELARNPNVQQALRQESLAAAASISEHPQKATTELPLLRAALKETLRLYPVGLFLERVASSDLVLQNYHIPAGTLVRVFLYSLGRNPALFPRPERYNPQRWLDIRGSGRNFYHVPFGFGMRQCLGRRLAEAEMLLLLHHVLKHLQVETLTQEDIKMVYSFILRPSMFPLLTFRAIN
Method in brief: as §1

Compound	EC50 [1]	EC50 [2]
O=C1c2ccc(Cl)cc2CCN1c1cncc(-c2cccc(C(F)(F)F)c2)c1 [Example 236, 6-Chloro-2-[5-(3-trifluoromethyl-phenyl)-pyridin-3-yl]-3,4-dihydro-2H-isoquinolin-1-one]	133 nM	4390 nM
O=C1c2ccc(Cl)cc2CCN1c1cncc(-c2cnoc2)c1 [Example 243, 6-Chloro-2-(5-isoxazol-4-yl-pyridin-3-yl)-3,4-dihydro-2H-isoquinolin-1-one]	268 nM	3340 nM
O=C1c2ccc(Cl)cc2CCN1c1cncc(COC2CCC2)c1 [Example 203, 6-Chloro-2-(5-cyclobutoxymethyl-pyridin-3-yl)-3,4-dihydro-2H-isoquinolin-1-one]	22.4 nM	212 nM
CCS(=O)(=O)NCc1cncc(N2C(=O)c3ccc(C#N)cc3C2(C)C)c1 [Example 389, Ethanesulfonic acid [5-(6-cyano-1,1-dimethyl-3-oxo-1,3-dihydro-isoindol-2-yl)-pyridin-3-ylmethyl]-amide]	115 nM	2950 nM
Cc1noc(C)c1-c1cncc(N2CCc3cc(Cl)ccc3C2=O)c1 [Example 230, 6-Chloro-2-[5-(3,5-dimethyl-isoxazol-4-yl)-pyridin-3-yl]-3,4-dihydro-2H-isoquinolin-1-one]	7 nM	149 nM
CCC(=O)N[C@@H]1CCCc2c1cncc2N1C(=O)c2cc(Cl)ccc2[C@@H]1CC (single isomer, unassigned) [Example 313, N-[(R or S)-4-((S or R)-5-Chloro-1-ethyl-3-oxo-1,3-dihydro-isoindol-2-yl)-5,6,7,8-tetrahydro-isoquinolin-8-yl]-propionamide]	118 nM	3540 nM
Cn1nccc1-c1cncc(N2C(=O)c3ccc(Cl)cc3C2(C)C)c1 [Example 418, 5-Chloro-3,3-dimethyl-2-[5-(2-methyl-2H-pyrazol-3-yl)-pyridin-3-yl]-2,3-dihydro-isoindol-1-one]	4 nM	62 nM
O=C1c2ccc(Cl)cc2CCN1c1cncc(N2CC[C@@H](O)C2)c1 [Example 137, 6-Chloro-2-[5-((R)-3-hydroxy-pyrrolidin-1-yl)-pyridin-3-yl]-3,4-dihydro-2H-isoquinolin-1-one]	10.1 nM	108 nM
O=C1c2ccc(Cl)cc2C(Cc2ccccc2)N1c1cccnc1 (stereo not shown) [Example 124, 3-Benzyl-5-chloro-2-pyridin-3-yl-2,3-dihydro-isoindol-1-one]	1070 nM	225 nM
CC[C@H]1c2cc(Cl)ccc2C(=O)N1c1cncc2c1CC[C@H]2NC(C)=O (single isomer, unassigned) [Example 343]	134 nM	4690 nM
COc1cncc(N2C(=O)c3ccc(Cl)cc3C2C)c1 (stereo not shown) [Example 120, 5-Chloro-2-(5-methoxy-pyridin-3-yl)-3-methyl-2,3-dihydro-isoindol-1-one]	24.7 nM	207 nM

Now from value to compound:

EC50 [1]	EC50 [2]	Compound
2130 nM	32500 nM	CNC(=O)COc1cncc(N2CCc3cc(Cl)ccc3C2=O)c1 [Example 254, 2-[5-(6-Chloro-1-oxo-3,4-dihydro-1H-isoquinolin-2-yl)-pyridin-3-yloxy]-N-methyl-acetamide]
41.5 nM	263 nM	COC(c1cncc(N2CCc3cc(Cl)ccc3C2=O)c1)C1CC1 (stereo not shown) [Example 21, 6-Chloro-2-[5-(cyclopropyl-methoxy-methyl)-pyridin-3-yl]-3,4-dihydro-2H-isoquinolin-1-one]
5.1 nM	34 nM	Cc1n[nH]c(C)c1-c1cncc(N2CCc3cc(Cl)ccc3C2=O)c1 [Example 79, 6-Chloro-2-[5-(3,5-dimethyl-1H-pyrazol-4-yl)-pyridin-3-yl]-3,4-dihydro-2H-isoquinolin-1-one]
23.7 nM	140 nM	O=C1c2ccc(Cl)cc2CCN1c1cncc(CN2CCCC(O)C2)c1 (stereo not shown) [Example 144, 6-Chloro-2-[5-(3-hydroxy-piperidin-1-ylmethyl)-pyridin-3-yl]-3,4-dihydro-2H-isoquinolin-1-one]
97.3 nM	2350 nM	Cn1ccc2cncc(N3CCc4cc(Cl)ccc4C3=O)c21 [Example 65, 6-Chloro-2-(1-methyl-1H-pyrrolo[3,2-c]pyridin-7-yl)-3,4-dihydro-2H-isoquinolin-1-one]
1050 nM	31000 nM	CCS(=O)(=O)NC1CCCc2c1cncc2N1Cc2cc(Cl)ccc2C1=O (racemic) [Example 315, Ethanesulfonic acid [4-(5-chloro-1-oxo-1,3-dihydro-isoindol-2-yl)-5,6,7,8-tetrahydro-isoquinolin-8-yl]-amide]
212 nM	14600 nM	CCC(=O)N[C@H]1CCc2c1cncc2N1C(=O)c2ccc(Cl)cc2[C@@H]1C (single isomer, unassigned) [Example 378, N-[(S or R)-4-((S or R)-5-Chloro-3-methyl-1-oxo-1,3-dihydro-isoindol-2-yl)-6,7-dihydro-5H-[2]pyrindin-7-yl]-propionamide]
12.2 nM	73.8 nM	O=C1c2ccc(Cl)cc2CCN1c1cncc(CNc2cccc(F)c2)c1 [Example 259, 6-Chloro-2-{5-[(3-fluoro-phenylamino)-methyl]-pyridin-3-yl}-3,4-dihydro-2H-isoquinolin-1-one]
130 nM	5570 nM	CC(=O)N[C@@H]1CCCc2c1cncc2N1C(=O)c2ccc(Cl)cc2[C@H]1C (single isomer, unassigned) [Example 364, N-[(R or S)-4-((R or S)-5-Chloro-3-methyl-1-oxo-1,3-dihydro-isoindol-2-yl)-5,6,7,8-tetrahydro-isoquinolin-8-yl]-acetamide]
5.6 nM	427 nM	CC(=O)N1CC[C@@H](Oc2cncc(N3C(=O)c4ccc(Cl)cc4C3(C)C)c2)C1 [Example 442, 2-[5-((R)-1-Acetyl-pyrrolidin-3-yloxy)-pyridin-3-yl]-5-chloro-3,3-dimethyl-2,3-dihydro-isoindol-1-one]
0.5 nM	0.6 nM	CS(=O)(=O)c1ccc(Cc2cncc(N3CCc4cc(Cl)ccc4C3=O)c2)cc1 [Example 205, 6-Chloro-2-[5-(4-methanesulfonyl-benzyl)-pyridin-3-yl]-3,4-dihydro-2H-isoquinolin-1-one]
32.1 nM	1680 nM	O=C1c2ccc(Cl)cc2CN1c1cncc2c1CCC[C@H]2O [Example 341, 5-Chloro-2-((R)-8-hydroxy-5,6,7,8-tetrahydro-isoquinolin-4-yl)-2,3-dihydro-isoindol-1-one]
12.1 nM	572 nM	COc1ccc2c(n1)C(C)(C)N(c1cncc(-c3ccnn3C)c1)C2=O [Example 426, 2-Methoxy-7,7-dimethyl-6-[5-(2-methyl-2H-pyrazol-3-yl)-pyridin-3-yl]-6,7-dihydro-pyrrolo[3,4-b]pyridin-5-one]
987 nM	20700 nM	CCC1c2ccc(Cl)cc2C(=O)N1c1cncc(CNS(C)(=O)=O)c1 (single isomer, unassigned) [Example 407, N-[5-((R or S)-5-Chloro-1-ethyl-3-oxo-1,3-dihydro-isoindol-2-yl)-pyridin-3-ylmethyl]-methane-sulfonamide]
327 nM	7860 nM	O=C(c1cncc(N2CCc3cc(Cl)ccc3C2=O)c1)N1CCCC1 [Example 42, 6-Chloro-2-[5-(pyrrolidine-1-carbonyl)-pyridin-3-yl]-3,4-dihydro-2H-isoquinolin-1-one]
